The test system of data set [1] is J774. As to the kind of experiment: Cytotoxicity in mouse J774 cells at 100 ug/mL after 24 hrs. The class given is cell-based. The note with it: j774, 24 h.
The subject of data set [2] is Trypanosoma cruzi. Put plainly: Antitrypanosomal activity against Trypanosoma cruzi bloodstream trypomastigote in mouse blood assessed as lysis of trypomastigotes at 250 ug/mL after 24 hrs relative to control. The data set is classed as functional.
For data set [3], the system named is J774. Put plainly: Cytotoxicity in mouse J774 cells at 100 ug/mL after 48 hrs. The class given is cell-based. The note with it: j774, 48 h.
Data set [4] relates to Leishmania amazonensis. Put plainly: Antileishmanial activity against Leishmania amazonensis MHOM/BR/PH8 promastigote assessed as lysis at 100 ug/mL after 72 hrs. The data set is classed as functional.
In data set [5] the test system is Leishmania infantum. As to the kind of experiment: Antileishmanial activity against Leishmania infantum MHOM/FR/91/LEM2259 promastigote assessed as lysis at 100 ug/mL after 72 hrs. The data set is classed as functional.
For data set [6], the system named is Leishmania braziliensis. As to the kind of experiment: Antileishmanial activity against Leishmania braziliensis MHOM/BR/75/M2903 promastigote assessed as lysis at 100 ug/mL after 72 hrs. The data set is classed as functional.
In data set [7] the test system is Trypanosoma cruzi. Put plainly: Inhibition of respiration in Trypanosoma cruzi Tulahuen 2 assessed as oxygen uptake at 1.032 mM. The data set is classed as functional. Details: scale not given: the % may be the effect or the level left.
Data set [8] concerns Trypanosoma cruzi. Put plainly: Antitrypanosomal activity against Trypanosoma cruzi bloodstream trypomastigote in mouse blood after 24 hrs relative to control. The class given is functional, organism-based.
Data set [9] concerns Trypanosoma cruzi. Put plainly: Inhibition of respiration in Trypanosoma cruzi Tulahuen 2 assessed as oxygen uptake at 0.325 mM. Details: scale not given: the % may be the effect or the level left. The data set is classed as functional.
For data set [10], the system named is Trypanosoma cruzi. As to the kind of experiment: Inhibition of respiration in Trypanosoma cruzi Tulahuen 2 assessed as oxygen uptake at 0.156 mM. The data set is classed as functional. The arrangement: scale not given: the % may be the effect or the level left.
The subject of data set [11] is Trypanosoma cruzi. Put plainly: Inhibition of respiration in Trypanosoma cruzi Tulahuen 2 assessed as oxygen uptake at 0.622 mM. The arrangement: scale not given: the % may be the effect or the level left. The class given is functional.
Data set [12] has as its system Trypanosoma cruzi. Put plainly: Inhibition of respiration in Trypanosoma cruzi Tulahuen 2 assessed as oxygen uptake. The class given is functional, organism-based.
The test system of data set [13] is Trypanosoma cruzi. As to the kind of experiment: Inhibition of respiration in Trypanosoma cruzi Tulahuen 2 assessed as oxygen uptake at 0.467 mM. The arrangement: scale not given: the % may be the effect or the level left. The data set is classed as functional.
In data set [14] the test system is Trypanosoma cruzi. Put plainly: Antitrypanosomal activity against Trypanosoma cruzi bloodstream trypomastigote infected in BALB/c mouse assessed as parasitemia at 30 mg/kg, po after 60 days by colorimetric method. The data set is classed as functional, organism-based. Details: dose 30 mg/kg.
The test system of data set [15] is Trypanosoma cruzi. As to the kind of experiment: Inhibition of respiration in Trypanosoma cruzi Tulahuen 2 assessed as oxygen uptake at 0.515 mM. The class given is functional. The arrangement: scale not given: the % may be the effect or the level left.
Data set [16] deals with Trypanosoma cruzi. As to the kind of experiment: Antitrypanosomal activity against Trypanosoma cruzi bloodstream trypomastigote infected in BALB/c mouse assessed as antibodies at 30 mg/kg, po after 60 days by colorimetric method. The class given is functional, organism-based. Details: dose 30 mg/kg.
For data set [17], the system named is Trypanosoma cruzi. As to the kind of experiment: Inhibition of respiration in Trypanosoma cruzi Tulahuen 2 assessed as oxygen uptake at 1.030 mM. The class given is functional. The arrangement: scale not given: the % may be the effect or the level left.
A short description of data set [18]: Toxicity in BALB/c mouse assessed as survival fraction at 30 mg/kg, po after 9 weeks. The data set is classed as organism-based. Details: dose 30 mg/kg, route oral. The note with it: in vivo.
Data set [19] has as its system Trypanosoma cruzi. Put plainly: Inhibition of respiration in Trypanosoma cruzi Tulahuen 2 assessed as oxygen uptake at 0.258 mM. The class given is functional. The arrangement: scale not given: the % may be the effect or the level left.
Data set [20] relates to Trypanosoma cruzi. As to the kind of experiment: Inhibition of respiration in Trypanosoma cruzi Tulahuen 2 assessed as oxygen uptake at 0.543 mM. The arrangement: scale not given: the % may be the effect or the level left. The data set is classed as functional.
In data set [21] the test system is Trypanosoma cruzi. Put plainly: Inhibition of respiration in Trypanosoma cruzi Tulahuen 2 assessed as oxygen uptake at 0.181 mM. Details: scale not given: the % may be the effect or the level left. The class given is functional.
Data set [22] relates to Trypanosoma cruzi. As to the kind of experiment: Inhibition of respiration in Trypanosoma cruzi Tulahuen 2 assessed as oxygen uptake at 0.724 mM. The class given is functional. The arrangement: scale not given: the % may be the effect or the level left.
Data set [23] deals with Trypanosoma cruzi. As to the kind of experiment: Inhibition of respiration in Trypanosoma cruzi Tulahuen 2 assessed as oxygen uptake at 0.362 mM. The class given is functional. The arrangement: scale not given: the % may be the effect or the level left.
The test system of data set [24] is Trypanosoma cruzi. Put plainly: Inhibition of respiration in Trypanosoma cruzi Tulahuen 2 assessed as oxygen uptake at 0.426 mM. Details: scale not given: the % may be the effect or the level left. The data set is classed as functional.
The test system of data set [25] is Trypanosoma cruzi. Put plainly: Inhibition of respiration in Trypanosoma cruzi Tulahuen 2 assessed as oxygen uptake at 0.272 mM. The class given is functional. The arrangement: scale not given: the % may be the effect or the level left.
In data set [26] the test system is Trypanosoma cruzi. Put plainly: Inhibition of respiration in Trypanosoma cruzi Tulahuen 2 assessed as oxygen uptake at 0.172 mM. The data set is classed as functional. The arrangement: scale not given: the % may be the effect or the level left.
Data set [27] deals with Trypanosoma cruzi. As to the kind of experiment: Inhibition of respiration in Trypanosoma cruzi Tulahuen 2 assessed as oxygen uptake at 0.091 mM. The arrangement: scale not given: the % may be the effect or the level left. The data set is classed as functional.
In data set [28] the test system is Trypanosoma cruzi. Put plainly: Antitrypanosomal activity against Trypanosoma cruzi bloodstream trypomastigote infected in BALB/c mouse assessed as parasitemia at 50 mg/kg, po after 60 days by colorimetric method. The class given is functional, organism-based. Details: dose 50 mg/kg.
The nature of data set [29]: Toxicity in BALB/c mouse assessed as survival fraction at 50 mg/kg, po after 9 weeks. The note with it: in vivo. Details: dose 50 mg/kg, route oral. The data set is classed as organism-based.
Data set [30] has as its system Trypanosoma cruzi. Put plainly: Antitrypanosomal activity against Trypanosoma cruzi bloodstream trypomastigote infected in BALB/c mouse assessed as antibodies at 50 mg/kg, po after 60 days by colorimetric method. Details: dose 50 mg/kg. The data set is classed as functional, organism-based.

Activity calls are given as the source filed them. The rule behind the calls is not given here.

Consider `O=[N+]([O-])c1ccc2c(c1)c(O)nn2CCOCCN1CCCCC1`, for which the Activity entry in data set [1] is given as “Non-toxic”; in data set [2] it was 53%; in data set [3] it was “Non-toxic”.

Take `N=C(N)c1ccc(OCCCCCOc2ccc(C(=N)N)cc2)cc1` [PENTAMIDINE]: the Activity in [4], in data set [5] and in data set [6] was 100% each time.

For the compound `O=[N+]([O-])c1ccc2c(c1)c(O)nn2Cc1ccccc1CN1CCCCC1`, the Activity in data set [7] is given as 109%; in data set [1], “Non-toxic”; in [4], less than 60%; in [2] it was 75%; in data set [5], less than 60%; in data set [6], less than 60%. Besides, the Activity entry in data set [3] is “Non-toxic”. The same compound yielded an IC50 in [8] greater than 50 µM.

As for `O=[N+]([O-])c1ccc2c(c1)c(O)nn2CCCCCN1CCCCC1`, the Activity entry in [1] is listed as “Non-toxic”; in data set [4], less than 60%; in data set [2], 36%; in data set [5], less than 60%; in data set [6], less than 60%; in data set [3], “Non-toxic”.

As to `CN(C)CCCCCn1nc(O)c2cc([N+](=O)[O-])ccc21`, the Activity entry in data set [1] was “Non-toxic”; in data set [2] it was 29%; in data set [3] it was “Non-toxic”.

With `COc1nn(CCCCCN2CCCCC2)c2ccc([N+](=O)[O-])cc12.Cl`, the Activity result in [1] is “Toxic”; in [4], less than 60%; in [2] it was 100%; in data set [5] it was less than 60%; in data set [6], less than 60%; in data set [3], “Toxic”.

Turning to `CN(C)CCCCCn1nc(OCc2ccccc2)c2cc([N+](=O)[O-])ccc21`, the Activity in [9] is 12%; in data set [10] it was 99%; in data set [11], 7%; in data set [1], “Toxic”; in [12], “Dose-dependent effect”; in data set [2], 100%. The Activity is 11% in [13] and “Toxic” in data set [3]. In addition, in data set [8], the IC50 was 12.5 µM.

With `COc1nn(CCOCCN2CCCCC2)c2ccc([N+](=O)[O-])cc12.Cl`, the outcome in data set [14] and in data set [16] was Active. In [8], the IC50 was greater than 50 µM. Besides, the Activity result in [1] is “Non-toxic”; in data set [4], less than 60%; in data set [15] it was 130%; in [2], 85%; in [17] it was 155%; in data set [5] it was less than 60%. Besides, the figures for the Activity in data set [6], in [19] and in [3] were less than 60%, 118% and “Non-toxic”, respectively. Besides, in data set [18], the survival at 1512 h worked out at 87.5%.

On to `CN(C)CCOCCn1nc(OCc2ccccc2)c2cc([N+](=O)[O-])ccc21`, for which the Activity in data set [20] was 11%; in data set [21], 66%; in data set [1], “Non-toxic”; in [4] it was 100%; in [12], “Dose-dependent effect”; in [22] it was 9%. In addition, the Activity is listed as 87% in data set [2]; 10% in [23]; 10% in [24]; 100% in [5]; 100% in [6]; “Non-toxic” in data set [3]. Besides, the result in data set [14] and in data set [16] was Active. For the same compound, it took 16.4 µM to reach half-maximal inhibition in data set [8] (IC50). The survival at 1512 h in [18] was 87.5%.

With `O=[N+]([O-])c1ccc2c(c1)c(OCc1ccccc1)nn2CCCCCN1CCCCC1`, the Activity in data set [25] is on record as 100%; in [1], “Toxic”; in data set [4] it was 100%; in [26], 111%; in [2] it was 34%; in data set [5] it was 100%. The Activity in data set [6] was 100%; in data set [3], “Toxic”; in [27], 109%. The compound further registered an IC50 in data set [8] of 6.6 µM.

As for `CN(C)Cc1ccccc1Cn1nc(O)c2cc([N+](=O)[O-])ccc21`, the Activity entry in data set [1] is given as “Non-toxic”; in [2], 0%; in [3], “Non-toxic”.

Turning to `COc1nn(CCOCCN(C)C)c2ccc([N+](=O)[O-])cc12.Cl`, the Activity result is “Non-toxic” in data set [1], 77% in data set [2] and “Non-toxic” in [3].

Take `CN(C)c1ccc(C(=C2C=CC(=[N+](C)C)C=C2)c2ccc(N(C)C)cc2)cc1.[Cl-]` [GENTIAN VIOLET]: in data set [2], the Activity turned out to be 100%.

In the case of `CN(C)CCOCCn1nc(O)c2cc([N+](=O)[O-])ccc21`, the Activity entry in data set [1] is “Non-toxic”; in data set [2], 18%; in data set [3], “Non-toxic”.

Take `O=[N+]([O-])c1ccc2c(c1)c(OCc1ccccc1)nn2CCOCCN1CCCCC1`: the values for the Activity entry in [1], in data set [2] and in [3] were “Non-toxic”, 44% and “Non-toxic”, respectively.

In the case of `O=C(Cn1ccnc1[N+](=O)[O-])NCc1ccccc1` [BENZNIDAZOLE], the outcome in [28] and in data set [30] was Active. Moreover, the survival at 1512 h in data set [29] was 60%.

Broadly, the IC50 is the midpoint of a concentration-inhibition curve.

The values above are taken from ChEMBL document CHEMBL1137697, “In vitro and in vivo antitrypanosomatid activity of 5-nitroindazoles” (Eur J Med Chem, 2009).
